The nature of data set [1]: In vitro SPF measurement in a chemical solvent (Diffey and Robson). The following applies: ethyl acetate, 10 μg/ml, transmittance 290-400 nm. Here is the method:
The in vitro methods of determining the protective effectiveness of sun products consist of measuring by transmission spectrophotometry the absorption spectrum of the filter in solution or of the product applied on a substrate with the aim of simulating the surface of the skin. The effectiveness against UVB and/or UVA rays, or the effect on the cutaneous response, are then determined by calculation, taking into account or not the UV radiation action spectrum for the damage considered.
The Sayre/Agin and Diffey/Robson method, used since the 1990s, involves a comparative measurement, with the aid of an integrating-sphere spectroradiometer, of the transition from 290 nm to 400 nm in 5 nm steps, the sample being subjected to UV radiation from a stable known source covering the whole of the UV spectrum (unfiltered xenon).
Diffey and Robson evaluate the erythemal response by the following calculation:
[formula] E(λ)=spectral irradiation in W(m-^2) (nm^−1) at 40° N sun at 20° zenith angle • ε=erythematous capacity
[formula] N(λ)=number of values for a given wavelength
The Diffey and Robson formula makes it possible to determine SPF from the measurement of transmittance between 290 nm and 400 nm. Transmittance is measured in solution in ethyl acetate at a concentration of 10 μg/ml using a UV-visible spectrophotometer (Varian CARY 50 Scan).
[formula] T(λ)=transmittance at wavelength λ

The nature of data set [2]: Photostability in solution in a chemical solvent (Suntest CPS+). Format: physicochemical. The following applies: 25 μg deposited from methanol, absorbance vs non-irradiated control, in % (unit assumed); for Photostability at 5 MED, mean: Suntest irradiation 5 MED; for Photostability at 10 MED, mean: Suntest irradiation 10 MED. An excerpt: A Suntest CPS+(Atlas, Linsengenicht/Altenhasslan, Germany) was used. The Suntest makes it possible to reproduce the solar spectrum and thus to carry out exposures inside at any time without weather constraints.
The radiance of the solar simulator was carefully measured with a spectroradiometer (MSS 2044, Bielefeld, Germany). UVB and UVA intensities were 0.49 mW/cm^2 and 6.32 mW/cm^2, respectively. The MED value defined by COLIPA is 5.6 J/cm^2 in total UV (22). The UV total (UVA+UVB) accounts for 14.8% of the energy delivered by the lamp (power 460 W/m^2). An irradiation dose equivalent to 1 MED corresponds to 37.83 J/cm^2 (in total spectrum) delivered by the lamp.
The Suntest test duration is calculated using the following formula: t=H/E with: • E=illumination energy in W/m^2 • H=irradiation dose in J/m^2 • t=duration of the test in s
The solutions of the compounds are prepared at a concentration of 500 μg/ml in methanol. 50 μl (25 μg) of each solution are deposited in a crystallizer, then irradiated in the Suntest at 5, 10 and/or 20 MED. A non-irradiated control is prepared (deposit of 50 μl of solution and addition of 2.450 ml of methanol). The solvent evaporates during irradiation and the products are taken up in 2.5 ml of methanol. After irradiation, the absorbance of each solution is measured with the UV-visible spectrophotometer (Varian CARY 50 Scan).

A short description of data set [3]: Solubility study in solvents or excipients used in cosmetics. Format: physicochemical. The following applies: for Solubilities: Soluble (solvent in which the compound is soluble): value = solvent; for Solubilities: Insoluble (solvent in which the compound is insoluble): value = solvent named in the Insoluble column.
Data set [4] can be described thus: Spectral characteristics: molar extinction coefficient and specific absorbance (UV spectrophotometry in ethyl acetate). It counts as physicochemical. The conditions noted are these: 10 μg/ml; for Maximum molar extinction coefficient UVA / Maximum specific absorbance UVA: UVA band; for Maximum molar extinction coefficient UVB / Maximum specific absorbance UVB: UVB band. The text has this:
The calculation of the molar extinction coefficient (ε) is made from the Beer-Lambert law:
[formula] Wherein: • A=absorbance • I0=intensity of the incident light • I=intensity of the transmitted light • ε=molar extinction (or molar absorbance) coefficient in M^−1 cm^−1 • l=path length in cm • c=concentration in mol/l
The molar extinction coefficient can be expressed with respect to a given mass of the product. It thus makes it possible to be able to compare the coefficients of extinction between products for the same given quantity. This quantity is 1% by weight. The molar extinction coefficient thus becomes the specific absorbance (A1cm^1%).
It is expressed as follows:
[formula] Wherein: • A1cm^1%=specific absorbance • ε=molar extinction coefficient • M=molar mass
The spectral characteristics of the compounds in comparison with commercial filters at a concentration of 10 μg/ml are summarized in tables 2-1 and 2-2.
Procedure: The products are dissolved in ethyl acetate to a concentration of 10 μg/ml. The spectra are measured using a dual-beam spectrophotometer (Varian CARY 50 Scan) between 290 nm and 400 nm.

A short description of data set [5]: Spectral distribution in UVA and UVB, 290 nm to 400 nm. It counts as physicochemical. The following applies: for Absorption peaks: range from 290 nm to 400 nm; for Spectral distribution (UV bands absorbed): absorption spectra, FIGS. 1-3. The text has this: The products tested are classified according to spectral distribution in UVA and UVB in a range from 290 nm to 400 nm. It is possible to differentiate them according to their spectral distribution: Products with a narrow spectrum: • Products absorbing in the range between 280 nm and 320 nm (UVB) • Products absorbing in the range between 320 nm and 400 nm (UVA) Products with a broad spectrum: • Products absorbing in UVB (280-320 nm) and UVA-II […] • Products covering UVB and UVA (280-400 nm).

Where [6] appears, read: excipient Finsol V NT ® (C12-C15 alkyl benzoate).
Setting [7] is: excipient PEG400 ® (polyethylene glycol).

Entries after “also recorded” stand apart in the source; their conditions may differ.

As to “1,4-bis[5,6-(4,4′-dihexyl)-diphenyl-1,2,4-triazin-3-yl]benzene [WP96]”, the SPF in data set [1] was determined as 68.02. The “Photostability at 5 MED, mean” value in data set [2] was 83.30. Also, the “Photostability at 10 MED, mean” value in data set [2] was determined as 74.35. For the same molecule, the figures for the “Solubility (%)” value in data set [3] (setting [6]), in data set [3] (excipient Myritol 318 ® (caprylic/capric triglycerides)) and in data set [3] (setting [7]) were 1%, 0.1% and 2%, respectively. Also, the “Solubilities: Soluble, Transcutol” value in data set [3] (solvent Transcutol) is “Transcutol 0.5%”. Besides, in data set [3], the “Solubilities: Soluble (solvent in which the compound is soluble)” value was “DMC and CHCl3 and Et2O and Toluene and Octanol and Methanol”. In addition, the “Solubilities: Insoluble (solvent in which the compound is insoluble)” value (“Solubilities: Insoluble” below) in data set [3] is “EtOH and Myritol and Acetic acid”.
On to `COc1ccc(C(=O)CC(=O)c2ccc(C(C)(C)C)cc2)cc1` [Parsol 1789 ®, reference compound], for which, in data set [4], the “Maximum molar extinction coefficient UVA” value came to 34100 M⁻¹ cm⁻¹. Further, in data set [4] (UVC band), the “Maximum molar extinction coefficient UVC” value was found to be 8633 at M^−1 cm^−1. In addition, in data set [4] (A1cm^1%), the “Maximum specific absorbance UVA” value is reported as 1100. Further, the “Maximum specific absorbance UVC” value in data set [4] (A1cm^1%, UVC band) is reported as 278 at. In addition, in data set [4] (the 'at ...' part of the cell), the “Wavelength of maximum molar extinction coefficient UVA” value is given as “at 360 nm”, the “Wavelength of maximum molar extinction coefficient UVC” value came to 275 nm, the “Wavelength of maximum specific absorbance UVA” value is recorded as “at 360 nm” and the “Wavelength of maximum specific absorbance UVC” value turned out to be 275 nm. For the same molecule, the Absorption peaks in data set [5] is 360 nm. The SPF in data set [1] came out at 51.1.
Consider `CCCCC(CC)COC(=O)C=Cc1ccc(OC)cc1` (centres unmarked) [Parsol MCX ®, reference compound], for which the “Maximum molar extinction coefficient UVB” value in data set [4] was determined as 24600 M⁻¹ cm⁻¹. The “Maximum specific absorbance UVB” value in data set [4] (A1cm^1%) stood at 848. In data set [4] (the 'at ...' part of the cell), the “Wavelength of maximum molar extinction coefficient UVB” value is reported as “at 310 nm” and the “Wavelength of maximum specific absorbance UVB” value is recorded as “at 310 nm”. Further, the Absorption peaks in data set [5] came to 310 nm. Moreover, the SPF in data set [1] was found to be 20.78.
As for `CC(C)(C)CC(C)(C)c1cc(Cc2cc(C(C)(C)CC(C)(C)C)cc(-n3nc4ccccc4n3)c2O)c(O)c(-n2nc3ccccc3n2)c1` [Tinosorb M ®, reference compound], in data set [4], the “Maximum molar extinction coefficient UVA” value was 36400 M⁻¹ cm⁻¹ and the “Maximum molar extinction coefficient UVB” value is 36600 M⁻¹ cm⁻¹. For the same molecule, in data set [4] (A1cm^1%), the “Maximum specific absorbance UVA” value is given as 552 and the “Maximum specific absorbance UVB” value is recorded as 556. For the same molecule, in data set [4] (the 'at ...' part of the cell), the “Wavelength of maximum molar extinction coefficient UVA” value is “at 345 nm”, the “Wavelength of maximum molar extinction coefficient UVB” value is on record as “at 305 nm”, the “Wavelength of maximum specific absorbance UVA” value is on record as “at 345 nm” and the “Wavelength of maximum specific absorbance UVB” value was “at 305 nm”. This molecule yielded an SPF in data set [1] of 54.07.
Take `CCCCC(CC)COc1ccc(-c2nc(-c3ccc(OC)cc3)nc(-c3ccc(OCC(CC)CCCC)cc3O)n2)c(O)c1` (centres unmarked) [Tinosorb S ®, reference compound]: in data set [4], the “Maximum molar extinction coefficient UVA” value came to 49580 M⁻¹ cm⁻¹ and the “Maximum molar extinction coefficient UVB” value was found to be 41750 M⁻¹ cm⁻¹. For the same molecule, in data set [4] (A1cm^1%), the “Maximum specific absorbance UVA” value is recorded as 789 and the “Maximum specific absorbance UVB” value worked out at 751. For the same molecule, in data set [4] (the 'at ...' part of the cell), the “Wavelength of maximum molar extinction coefficient UVA” value is “at 345 nm”, the “Wavelength of maximum molar extinction coefficient UVB” value is “at 310 nm”, the “Wavelength of maximum specific absorbance UVA” value was “at 345 nm” and the “Wavelength of maximum specific absorbance UVB” value is “at 310 nm”. This molecule gave an SPF in data set [1] of 76.19.
For the molecule `c1ccc(-c2nnc(-c3ccc(-c4nnc(-c5ccccc5)c(-c5ccccc5)n4)cc3)nc2-c2ccccc2)cc1` [WP30, 1,4-bis(5,6-diphenyl-1,2,4-triazin-3-yl)benzene], the “Maximum molar extinction coefficient UVA” value in data set [4] is 50200 M⁻¹ cm⁻¹. Besides, the “Maximum specific absorbance UVA” value in data set [4] (A1cm^1%) amounted to 928. Besides, in data set [4] (the 'at ...' part of the cell), the “Wavelength of maximum molar extinction coefficient UVA” value is listed as “at 325 nm” and the “Wavelength of maximum specific absorbance UVA” value was “at 325 nm”. In data set [5], the “Spectral distribution (UV bands absorbed)” value (shortened to “Spectral distribution”) is “absorb in UVB and UVA”; the Absorption peaks amounted to 325 nm. In data set [2], the “Photostability at 5 MED, mean” value came to 77.75 and the “Photostability at 10 MED, mean” value was 56.12. Also, in data set [3], the “Solubilities: Soluble (solvent in which the compound is soluble)” value is on record as “DMSO or hot DMF; also recorded: Ethyl acetate (PS)”; the “Solubilities: Insoluble” value is “Acetonitrile and Benzene and Myritol and Transcutol and Water and MeOH and CHCl3 and Acetone”.
For the molecule `c1ccc(-c2nnc(-c3cccc(-c4nnc(-c5ccccc5)c(-c5ccccc5)n4)c3)nc2-c2ccccc2)cc1` [WP76, 1,3-bis(5,6-diphenyl-1,2,4-triazin-3-yl)benzene], the “Maximum molar extinction coefficient UVB” value in data set [4] worked out at 54000 M⁻¹ cm⁻¹. Moreover, in data set [4] (A1cm^1%), the “Maximum specific absorbance UVB” value was found to be 998. For the same molecule, in data set [4] (the 'at ...' part of the cell), the “Wavelength of maximum molar extinction coefficient UVB” value is given as “at 290 nm” and the “Wavelength of maximum specific absorbance UVB” value is on record as “at 290 nm”. Besides, in data set [5], the “Spectral distribution” value is on record as “absorbs in UVB” and the Absorption peaks is recorded as 290 nm. Besides, in data set [2], the “Photostability at 5 MED, mean” value is given as 69.23 and the “Photostability at 10 MED, mean” value was 62.53. In data set [3], the “Solubilities: Soluble (solvent in which the compound is soluble)” value is “DMSO or hot DMF”; the “Solubilities: Insoluble” value is “Water and MeOH and CHCl3 and Acetone and Acetonitrile and Benzene”.
Regarding `CCCCCCCCCCCCc1ccc(-c2nnc(-c3ccc(-c4nnc(-c5ccc(CCCCCCCCCCCC)cc5)c(-c5ccc(CCCCCCCCCCCC)cc5)n4)cc3)nc2-c2ccc(CCCCCCCCCCCC)cc2)cc1` [WP107, 1,4-bis[5,6-bis(4-dodecylphenyl)-1,2,4-triazine-3-yl]benzene], in data set [4], the “Maximum molar extinction coefficient UVA” value came to 95000 M⁻¹ cm⁻¹ and the “Maximum molar extinction coefficient UVB” value was 92000 M⁻¹ cm⁻¹. For the same molecule, in data set [4] (A1cm^1%), the “Maximum specific absorbance UVA” value was found to be 783 and the “Maximum specific absorbance UVB” value came out at 757. In data set [4] (the 'at ...' part of the cell), the “Wavelength of maximum molar extinction coefficient UVA” value is “at 335 nm”, the “Wavelength of maximum molar extinction coefficient UVB” value is recorded as “at 300 nm”, the “Wavelength of maximum specific absorbance UVA” value is “at 335 nm” and the “Wavelength of maximum specific absorbance UVB” value is given as “at 300 nm”. For the same molecule, in data set [5], the “Spectral distribution” value is “absorb in UVB and UVA”; the Absorption peaks was determined as 300 nm. Also, in data set [2], the “Photostability at 5 MED, mean” value turned out to be 89.27 and the “Photostability at 10 MED, mean” value worked out at 84.75. Further, the “Solubility (%)” value in data set [3] (excipient Arlasolve DMI ® (dimethyl isosorbide)) is listed as 1%. In addition, the “Solubility (%)” value in data set [3] (setting [6]) was found to be 1%. For the same molecule, the “Solubility (%)” value in data set [3] (setting [7]) amounted to 1%. Besides, in data set [3], the “Solubilities: Soluble (solvent in which the compound is soluble)” value was “DCM and CHCl3 and Toluene and Octanol and Ethyl acetate and DMSO”; the “Solubilities: Insoluble” value was “EtOH and Acetic acid and MeOH and Myritol and Transcutol”.
